Where two headings read alike, the source gives them in different places. Non-standard residues stand in square brackets, D forms with d. Residues, ends and D or L forms follow the SMILES beside them. 1Nal = N[C@@H](Cc1cccc2ccccc12)C(=O)O; β3hI = CC[C@H](C)[C@H](N)CC(=O)O; β3hR = N=C(N)NCCC[C@H](N)CC(=O)O; Nle = CCCC[C@H](N)C(=O)O; Aib = CC(C)(N)C(=O)O; βAla = NCCC(=O)O
Assays:
human PTH-2 receptor = biological target: T1, human PTH-2 receptor (Homo sapiens, UniProt P49190); assay: Luciferase-based transcriptional reporter gene assay for selectivity; format: cell-based
T1 construct: expressed in transfected cells
Outline: (§1)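 Selectivity came from luciferase transcriptional reporter assays expressing human PTH-2 receptor. PTH-1 agonism used transiently transfected HEK-293 cells carrying SV40-promoter receptor and cAMP-responsive-element luciferase; 4-5 h compound exposure, lysis, luminescence, non-linear-regression EC50/efficacy; ≥3 independent runs, PTH (1-34) control each.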

human PTH-1 receptor = biological target: T2, human PTH-1 receptor (Homo sapiens, UniProt Q03431); assay: Reporter gene assay (CRE-luciferase) for agonist activity in transiently transfected HEK-293 cells; format: cell-based; conditions: for hPTHR-2/hPTHR-1: Table 3, selectivity for hPTH-1 receptor over hPTH-2 receptor; for hPTHR-2/hPTHR-1 / Selectivity hPTHR-2/hPTHR-1: ratio of EC50 values
T2 construct: expressed in transfected cells; host or cells: HEK-293
T2 sequence (Q03431 27-593): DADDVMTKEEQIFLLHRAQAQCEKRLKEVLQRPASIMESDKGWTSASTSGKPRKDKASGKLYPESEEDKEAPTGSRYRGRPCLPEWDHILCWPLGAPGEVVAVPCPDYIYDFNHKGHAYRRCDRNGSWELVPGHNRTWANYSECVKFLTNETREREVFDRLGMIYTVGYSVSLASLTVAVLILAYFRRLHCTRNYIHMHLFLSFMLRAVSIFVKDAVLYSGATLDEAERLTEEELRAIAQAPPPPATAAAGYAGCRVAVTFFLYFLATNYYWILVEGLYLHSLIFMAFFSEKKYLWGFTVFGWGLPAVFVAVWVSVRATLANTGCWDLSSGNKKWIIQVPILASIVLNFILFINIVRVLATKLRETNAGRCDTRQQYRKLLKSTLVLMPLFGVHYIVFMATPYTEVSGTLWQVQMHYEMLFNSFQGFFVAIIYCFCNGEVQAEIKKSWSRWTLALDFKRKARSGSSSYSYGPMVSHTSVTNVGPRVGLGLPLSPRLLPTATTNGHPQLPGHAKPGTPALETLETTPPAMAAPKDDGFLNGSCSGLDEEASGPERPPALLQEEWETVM
Outline: as §1

T1 sequence (P49190 25-550): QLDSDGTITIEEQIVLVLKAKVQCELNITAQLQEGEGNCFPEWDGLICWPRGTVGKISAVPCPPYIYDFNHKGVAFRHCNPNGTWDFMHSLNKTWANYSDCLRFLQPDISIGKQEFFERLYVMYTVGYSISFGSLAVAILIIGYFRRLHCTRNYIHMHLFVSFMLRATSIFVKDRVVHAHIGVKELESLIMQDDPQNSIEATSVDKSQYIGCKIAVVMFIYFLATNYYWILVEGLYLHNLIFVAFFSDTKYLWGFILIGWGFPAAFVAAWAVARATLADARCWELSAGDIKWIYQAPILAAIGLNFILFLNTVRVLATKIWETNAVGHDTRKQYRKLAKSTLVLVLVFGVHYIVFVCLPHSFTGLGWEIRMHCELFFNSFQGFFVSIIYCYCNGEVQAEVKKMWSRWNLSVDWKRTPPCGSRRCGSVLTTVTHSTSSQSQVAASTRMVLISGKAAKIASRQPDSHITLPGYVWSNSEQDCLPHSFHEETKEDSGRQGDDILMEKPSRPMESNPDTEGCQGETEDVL

SMILES | EC50 (human PTH-2 receptor) [nM] | EC50 (human PTH-1 receptor) [nM] | hPTHR-2/hPTHR-1 (human PTH-1 receptor) | Selectivity hPTHR-2/hPTHR-1 (human PTH-1 receptor; Table 4 comparison data) | EC50 (human PTH-2 receptor; Table 4 comparison data, luciferase reporter gene assay, read-out: hPTHR-2 EC50) [nM] | EC50 (human PTH-1 receptor; Table 4 comparison data, HEK-293 cells, CRE-luciferase, read-out: hPTHR-1 EC50) [nM]
CCCC[C@H](NC(=O)[C@H](CC(C)C)NC(=O)[C@H](CCC(N)=O)NC(=O)[C@@H](NC(=O)[C@H](CCC(=O)O)NC(=O)[C@H](CO)NC(=O)[C@@H](NC(=O)C(C)(C)N)C(C)C)[C@@H](C)CC)C(=O)N[C@@H](Cc1c[nH]cn1)C(=O)N[C@@H](CC(N)=O)C(=O)N[C@@H](CC(C)C)C(=O)NCC(=O)N[C@@H](CCCCN)C(=O)N[C@@H](Cc1c[nH]cn1)C(=O)N[C@@H](CC(C)C)C(=O)N[C@@H](CC(N)=O)C(=O)N[C@@H](CO)C(=O)N[C@@H](CCCNC(=N)N)CC(=O)N[C@@H](CCC(=O)O)C(=O)N[C@@H](CCCNC(=N)N)C(=O)N[C@H](C(=O)N[C@@H](CCC(=O)O)C(=O)N[C@@H](Cc1cccc2ccccc12)C(=O)N[C@@H](CC(C)C)C(=O)N[C@@H](CCCNC(=N)N)C(=O)N[C@@H](CCCCN)C(=O)N[C@@H](CC(C)C)C(=O)N[C@@H](CC(C)C)C(=O)N[C@@H](CCC(N)=O)C(=O)N[C@@H](CC(=O)O)C(=O)N[C@H](C(=O)N[C@@H](Cc1c[nH]cn1)C(=O)N[C@@H](CC(N)=O)C(=O)N[C@@H](Cc1ccccc1)C(N)=O)C(C)C)C(C)C [SEQ ID NO: 43, [Aib^1, Nle^8, β-hArg^18,1-Nal^23, Leu^27] hPTH (1-34)-NH2] (H-[Aib]VSEIQL[Nle]HNLGKHLNS[β3hR]ERVE[1Nal]LRKLLQDVHNF-NH2) | 16 | 0.05 | 312 | 312 | – | –
CCCC[C@H](NC(=O)CCNC(=O)[C@H](CC(N)=O)NC(=O)[C@H](CC(C)C)NC(=O)[C@H](Cc1c[nH]cn1)NC(=O)[C@H](CCCCN)NC(=O)CNC(=O)[C@H](CC(C)C)NC(=O)[C@H](CC(N)=O)NC(=O)[C@H](Cc1c[nH]cn1)NC(=O)[C@H](CCCC)NC(=O)[C@H](CC(C)C)NC(=O)[C@H](CCC(N)=O)NC(=O)[C@@H](NC(=O)[C@H](CCC(=O)O)NC(=O)[C@H](CO)NC(=O)[C@@H](NC(=O)C(C)(C)N)C(C)C)[C@@H](C)CC)C(=O)N[C@@H](CCC(=O)O)C(=O)N[C@@H](CCCNC(=N)N)C(=O)N[C@H](C(=O)N[C@@H](CCC(=O)O)C(=O)N[C@@H](Cc1cccc2ccccc12)C(=O)N[C@@H](CC(C)C)C(=O)N[C@@H](CCCNC(=N)N)C(=O)N[C@@H](CCCCN)C(=O)N[C@@H](CCCCN)C(=O)N[C@@H](CC(C)C)C(=O)N[C@@H](CCC(N)=O)C(=O)N[C@@H](CC(=O)O)C(=O)N[C@H](C(=O)N[C@@H](Cc1c[nH]cn1)C(=O)N[C@@H](CC(N)=O)C(=O)N[C@@H](Cc1ccccc1)C(N)=O)C(C)C)C(C)C [SEQ ID NO: 55, [Aib^1, Nle^8,18, β-Ala^17,1-Nal^23] hPTH (1-34)-NH2] (H-[Aib]VSEIQL[Nle]HNLGKHLN[βAla][Nle]ERVE[1Nal]LRKKLQDVHNF-NH2) | – | – | – | 213 | 46 | 0.22
CCCC[C@H](NC(=O)CCNC(=O)[C@H](CC(N)=O)NC(=O)[C@H](CC(C)C)NC(=O)[C@H](Cc1c[nH]cn1)NC(=O)[C@H](CCCCN)NC(=O)CNC(=O)[C@H](CC(C)C)NC(=O)[C@H](CC(N)=O)NC(=O)[C@H](Cc1c[nH]cn1)NC(=O)[C@H](CCCC)NC(=O)[C@H](CC(C)C)NC(=O)[C@H](CCC(N)=O)NC(=O)[C@@H](NC(=O)[C@H](CCC(=O)O)NC(=O)[C@H](CO)NC(=O)[C@@H](NC(=O)C(C)(C)N)C(C)C)[C@@H](C)CC)C(=O)N[C@@H](CCC(=O)O)C(=O)N[C@@H](CCCNC(=N)N)C(=O)N[C@H](C(=O)N[C@@H](CCC(=O)O)C(=O)N[C@@H](Cc1cccc2ccccc12)C(=O)N[C@@H](CC(C)C)C(=O)N[C@@H](CCCNC(=N)N)C(=O)N[C@@H](CCCCN)C(=O)N[C@@H](CC(C)C)C(=O)N[C@@H](CC(C)C)C(=O)N[C@@H](CCC(N)=O)C(=O)N[C@@H](CC(=O)O)C(=O)N[C@H](C(=O)N[C@@H](Cc1c[nH]cn1)C(=O)N[C@@H](CC(N)=O)C(=O)N[C@@H](Cc1ccccc1)C(N)=O)C(C)C)C(C)C [SEQ ID NO: 2, [Aib^1, Nle^8,18, β-Ala^17,1-Nal^23, Leu^27] hPTH (1-34)-NH2] (H-[Aib]VSEIQL[Nle]HNLGKHLN[βAla][Nle]ERVE[1Nal]LRKLLQDVHNF-NH2) | 31 | 0.06 | 566 | 566 | – | –
CCCC[C@H](NC(=O)[C@H](CC(C)C)NC(=O)[C@H](CCC(N)=O)NC(=O)[C@@H](NC(=O)[C@H](CCC(=O)O)NC(=O)[C@H](CO)NC(=O)[C@@H](NC(=O)[C@@H](N)CO)C(C)C)[C@@H](C)CC)C(=O)N[C@@H](Cc1c[nH]cn1)C(=O)N[C@@H](CC(N)=O)C(=O)N[C@@H](CC(C)C)C(=O)NCC(=O)N[C@@H](CCCCN)C(=O)N[C@@H](Cc1c[nH]cn1)C(=O)N[C@@H](CC(C)C)C(=O)N[C@@H](CCCCN)C(=O)N[C@@H](CO)C(=O)N[C@H](CC(=O)N[C@@H](CCC(=O)O)C(=O)N[C@@H](CCCNC(=N)N)C(=O)N[C@H](C(=O)N[C@@H](CCC(=O)O)C(=O)N[C@@H](Cc1cccc2ccccc12)C(=O)N[C@@H](CC(C)C)C(=O)N[C@@H](CCCNC(=N)N)C(=O)N[C@@H](CCCCN)C(=O)N[C@@H](CC(C)C)C(=O)N[C@@H](CC(C)C)C(=O)N[C@@H](CCC(N)=O)C(=O)N[C@@H](CCCNC(=N)N)C(=O)N[C@H](C(=O)N[C@@H](Cc1c[nH]cn1)C(=O)N[C@@H](CCC(=O)O)C(=O)N[C@@H](Cc1ccccc1)C(N)=O)C(C)C)C(C)C)[C@@H](C)CC [SEQ ID NO: 41, [Nle^8, Lys^16, β-hIle^18,1-Nal^23, Leu^27, Arg^30, Glu^33] hPTH (1-34)-NH2] (H-SVSEIQL[Nle]HNLGKHLKS[β3hI]ERVE[1Nal]LRKLLQRVHEF-NH2) | 14 | 0.09 | 157 | – | – | –
CCCC[C@H](NC(=O)[C@H](CC(C)C)NC(=O)[C@H](CCC(N)=O)NC(=O)[C@@H](NC(=O)[C@H](CCC(=O)O)NC(=O)[C@H](CO)NC(=O)[C@@H](NC(=O)[C@@H](N)CO)C(C)C)[C@@H](C)CC)C(=O)N[C@@H](Cc1c[nH]cn1)C(=O)N[C@@H](CO)C(=O)N[C@@H](CC(C)C)C(=O)NCC(=O)N[C@@H](CCCCN)C(=O)N[C@@H](Cc1c[nH]cn1)C(=O)N[C@@H](CC(C)C)C(=O)N[C@@H](CCCCN)C(=O)N[C@@H](CO)C(=O)N[C@H](CC(=O)N[C@@H](CCC(=O)O)C(=O)N[C@@H](CCCNC(=N)N)C(=O)N[C@H](C(=O)N[C@@H](CCC(=O)O)C(=O)N[C@@H](Cc1cccc2ccccc12)C(=O)N[C@@H](CC(C)C)C(=O)N[C@@H](CCCNC(=N)N)C(=O)N[C@@H](CCCCN)C(=O)N[C@@H](CC(C)C)C(=O)N[C@@H](CC(C)C)C(=O)N[C@@H](CCC(N)=O)C(=O)N[C@@H](CCCNC(=N)N)C(=O)N[C@H](C(N)=O)C(C)C)C(C)C)[C@@H](C)CC [SEQ ID NO: 49, [Nle^8, Ser^10, Lys^16, β-hIle^18,1-Nal^23, Leu^27, Arg^30] hPTH (1-31)-NH2] (H-SVSEIQL[Nle]HSLGKHLKS[β3hI]ERVE[1Nal]LRKLLQRV-NH2) | 7 | 0.08 | 87 | – | – | –
CCCC[C@H](NC(=O)[C@H](CC(C)C)NC(=O)[C@H](CCC(N)=O)NC(=O)[C@@H](NC(=O)[C@H](CCC(=O)O)NC(=O)[C@H](CO)NC(=O)[C@@H](NC(=O)C(C)(C)N)C(C)C)[C@@H](C)CC)C(=O)N[C@@H](Cc1c[nH]cn1)C(=O)N[C@@H](CC(N)=O)C(=O)N[C@@H](CC(C)C)C(=O)NCC(=O)N[C@@H](CCCCN)C(=O)N[C@@H](Cc1c[nH]cn1)C(=O)N[C@@H](CC(C)C)C(=O)N[C@@H](CCCCN)C(=O)N[C@@H](CO)C(=O)N[C@H](CC(=O)N[C@@H](CCC(=O)O)C(=O)N[C@@H](CCCNC(=N)N)C(=O)N[C@H](C(=O)N[C@@H](CCC(=O)O)C(=O)N[C@@H](Cc1cccc2ccccc12)C(=O)N[C@@H](CC(C)C)C(=O)N[C@@H](CCCNC(=N)N)C(=O)N[C@@H](CCCCN)C(=O)N[C@@H](CC(C)C)C(=O)N[C@@H](CC(C)C)C(=O)N[C@@H](CCC(N)=O)C(=O)N[C@@H](CCCNC(=N)N)C(=O)N[C@H](C(=O)N[C@@H](Cc1c[nH]cn1)C(=O)N[C@@H](CCC(=O)O)C(=O)N[C@@H](Cc1ccccc1)C(N)=O)C(C)C)C(C)C)[C@@H](C)CC [SEQ ID NO: 39, [Aib^1, Nle^8, Lys^16, β-hIle^18,1-Nal^23, Leu^27, Arg^30, Glu^33] hPTH (1-34)-NH2] (H-[Aib]VSEIQL[Nle]HNLGKHLKS[β3hI]ERVE[1Nal]LRKLLQRVHEF-NH2; N-terminus assumed) | 6 | 0.09 | 61 | – | – | –
